The values below come from ChEMBL document CHEMBL3758161, “Synthesis and evaluation of antibacterial and antitumor activities of new galactopyranosylated amino alcohols” (Eur J Med Chem, 2016).

One series has as its system M059J. The series can be described thus: Cytotoxicity against human M059J cells assessed as cell growth inhibition after 24 hrs by XTT assay. It is filed as functional, cell-based.
For series [1], the system named is Staphylococcus epidermidis. The experiment in a line: Antibacterial activity against gram-positive Staphylococcus epidermidis ATCC 12228 at 5 mg/ml incubated overnight by agar well diffusion method. In kind it is functional. To be noted: read-out: DIZ. In general terms: In agar diffusion tests the substance spreads into inoculated agar from a disc or well.
The test system of series [2] is Pseudomonas aeruginosa. The series can be described thus: Bactericidal activity against gram-negative Pseudomonas aeruginosa ATCC 2785 after 24 hrs by broth dilution method. In kind it is functional. The conditions noted are these: ATCC 2785, 24 h. On the technique in general: In broth dilution the organism is exposed to a series of concentrations in liquid medium.

Series [3] concerns Escherichia coli. The series can be described thus: Bactericidal activity against gram-negative Escherichia coli ATCC 11229 after 24 hrs by broth dilution method. In kind it is functional. To be noted: ATCC 11229, 24 h.
Series [4] concerns Staphylococcus aureus. The series can be described thus: Bactericidal activity against gram-positive Staphylococcus aureus ATCC 3591 after 24 hrs by broth dilution method. It is filed as functional. To be noted: ATCC 3591, 24 h.
The subject of series [5] is Mycobacterium tuberculosis. The series can be described thus: microbe, parasite or virus in culture. The conditions noted are these: H37Rv.
Description: Antibacterial activity against Mycobacterium tuberculosis H37Rv
The subject of series [6] is MCF7. The experiment in a line: cells. The conditions noted are these: Homo sapiens, MCF7, 24 h.
Description: Cytotoxicity against human MCF7 cells assessed as cell growth inhibition after 24 hrs by XTT assay
In series [7] the test system is Staphylococcus aureus. The experiment in a line: Antibacterial activity against gram-positive Staphylococcus aureus ATCC 3591 at 5 mg/ml incubated overnight by agar well diffusion method. In kind it is functional. To be noted: read-out: DIZ.
The test system of a further series is HeLa. The series can be described thus: Cytotoxicity against human HeLa cells assessed as cell growth inhibition after 24 hrs by XTT assay. It is filed as functional, cell-based. Background: Tetrazolium assays rely on reduction of a dye to a coloured formazan, in cell work by metabolically active cells.
A short description of series [8]: Lipophilicity, log P of the compound. In kind it is physicochemical. The conditions noted are these: octanol/water.
Series [9] can be described thus: Cytotoxicity against human GM07492A cells assessed as cell growth inhibition after 24 hrs by XTT assay. It is filed as cell-based.
The subject of series [10] is Pseudomonas aeruginosa. The series can be described thus: Antibacterial activity against gram-negative Pseudomonas aeruginosa ATCC 2785 at 5 mg/ml incubated overnight by agar well diffusion method. It is filed as functional. The conditions noted are these: read-out: DIZ.
Series [11] deals with MCF7. The series can be described thus: Selectivity index, ratio of IC50 for human GM07492A cells to IC50 for human MCF7 cells. In kind it is functional.
The subject of series [12] is Staphylococcus epidermidis. The series can be described thus: Bactericidal activity against gram-positive Staphylococcus epidermidis ATCC 12228 after 24 hrs by broth dilution method. In kind it is functional. The conditions noted are these: ATCC 12228, 24 h.
Series [13] has as its system Escherichia coli. The series can be described thus: Antibacterial activity against gram-negative Escherichia coli ATCC 11229 at 5 mg/ml incubated overnight by agar well diffusion method. In kind it is functional. The conditions noted are these: read-out: DIZ.

Bounds are passed on as bounds.

Consider `CCCCCCCCCCCCCCNCCNCC(O)COC[C@H]1O[C@@H]2OC(C)(C)O[C@@H]2[C@H]2OC(C)(C)O[C@H]21` (mixture of isomers), for which the IC50 came to 39.2 µM with M059J, 39.3 µM with MCF7 [6], 41.5 µM with HeLa and 24.9 µM in series [9]. Also, the zone of inhibition at 5000 µg/mL is 20 mm in series [1], 22 mm with Staphylococcus aureus [7], 20 mm with Pseudomonas aeruginosa [10] and 10 mm in the series with Escherichia coli [13]. Moreover, the minimal bactericidal concentration (MBC) is > 894 µM against Pseudomonas aeruginosa [2], 445 µM with Escherichia coli [3], 14 µM against Staphylococcus aureus [4] and 14 µM in series [12]. Besides, in [5], the MIC is 87 µM. The lipophilicity (logP) in series [8] came to 3.56. Moreover, the “Ratio IC50” value in the series with MCF7 [11] was determined as 0.6.
Turning to `CCCCCCCCC(O)CN(CCO)CC(O)COC[C@H]1O[C@@H]2OC(C)(C)O[C@@H]2[C@H]2OC(C)(C)O[C@H]21` (mixture of isomers), the zone of inhibition at 5000 µg/mL turned out to be 22 mm in series [1], 16 mm in the series on Staphylococcus aureus [7] and 18 mm in the series with Pseudomonas aeruginosa [10]. The MBC in the series with Pseudomonas aeruginosa [2] was > 959 µM; against Escherichia coli [3] it was > 959 µM; against Staphylococcus aureus [4], 240 µM; in [12], 120 µM. Moreover, the MIC in [5] is > 187 µM. For the same compound, the logP in series [8] was found to be 2.43.
Turning to `CCCCCCCCCCNCCNCC(O)COC[C@H]1O[C@@H]2OC(C)(C)O[C@@H]2[C@H]2OC(C)(C)O[C@H]21` (mixture of isomers), the 50% inhibitory concentration (IC50) is 39.2 µM in the series on M059J, 28 µM in the series with MCF7 [6], 40.2 µM in the series with HeLa and 63.3 µM in [9]. Further, the zone of inhibition at 5000 µg/mL turned out to be 20 mm in [1], 20 mm in the series with Staphylococcus aureus [7] and 16 mm with Escherichia coli [13]. Also, the MBC is > 990 µM against Pseudomonas aeruginosa [2], > 990 µM against Escherichia coli [3], 8 µM with Staphylococcus aureus [4] and 8 µM in [12]. In addition, the MIC in [5] came out at 24 µM. This compound also showed a lipophilicity (logP) in series [8] of 3.15. In the series with MCF7 [11], the “Ratio IC50” value is recorded as 2.3.
For the compound `CCCCCCCCCCCCN(CCO)CC(O)COC[C@H]1O[C@@H]2OC(C)(C)O[C@@H]2[C@H]2OC(C)(C)O[C@H]21` (mixture of isomers), the 50% inhibitory concentration (IC50) came out at 110 µM with M059J, 104 µM in the series with MCF7 [6], 125 µM in the series with HeLa and 282 µM in [9]. The zone of inhibition at 5000 µg/mL (in [1]; with Pseudomonas aeruginosa [10]) was 20 mm each time. The MBC was > 938 µM in the series with Pseudomonas aeruginosa [2], > 938 µM with Escherichia coli [3], > 938 µM in the series on Staphylococcus aureus [4] and 4 µM in series [12]. In addition, the MIC in series [5] is 23 µM. Moreover, in [8], the logP came to 4.22. In the series with MCF7 [11], the “Ratio IC50” value was determined as 2.7.
Consider `CCCCCCCCCCCCNCCNCC(O)COC[C@H]1O[C@@H]2OC(C)(C)O[C@@H]2[C@H]2OC(C)(C)O[C@H]21` (mixture of isomers), for which the half-inhibitory concentration (IC50) is 10 µM in the series on M059J, 11.9 µM in the series on MCF7 [6] and 7.3 µM in [9]. For the same compound, the zone of inhibition at 5000 µg/mL in [1] was found to be 20 mm; in the series with Staphylococcus aureus [7], 30 mm; with Pseudomonas aeruginosa [10], 20 mm; in the series with Escherichia coli [13], 10 mm. In addition, the MBC is > 940 µM in the series with Pseudomonas aeruginosa [2], 235 µM in the series on Escherichia coli [3], 15 µM against Staphylococcus aureus [4] and 15 µM in [12]. In series [5], the MIC was found to be 91 µM. In series [8], this compound registered a logP of 3.99. Moreover, the “Ratio IC50” value with MCF7 [11] worked out at 0.6.
Turning to `CCCCCCCCCCNCCCNCC(O)COC[C@H]1O[C@@H]2OC(C)(C)O[C@@H]2[C@H]2OC(C)(C)O[C@H]21` (mixture of isomers), the concentration for half-maximal inhibition (IC50) worked out at 53.8 µM with M059J, 32.2 µM in the series with MCF7 [6], 57 µM in the series with HeLa and 29.4 µM in series [9]. Also, the MBC in the series with Pseudomonas aeruginosa [2] was > 965 µM; in the series with Escherichia coli [3] it was 241 µM; in the series with Staphylococcus aureus [4], 60 µM; in [12], 15 µM. In series [5], this compound yielded an MIC of 23 µM. Besides, the zone of inhibition at 5000 µg/mL in the series with Staphylococcus aureus [7] stood at 12 mm; in the series with Escherichia coli [13], 28 mm. Also, the logP in series [8] was 3.26. Moreover, in the series on MCF7 [11], the “Ratio IC50” value came to 0.9.
As to `NC(=O)N/N=C/c1ccc([N+](=O)[O-])o1` [NITROFURAZONE], the zone of inhibition at 5000 µg/mL in [1] amounted to 25 mm; in the series on Staphylococcus aureus [7], 31 mm; in the series with Pseudomonas aeruginosa [10], 15 mm; in the series with Escherichia coli [13], 35 mm.

The IC50 is the midpoint of a concentration-inhibition curve. By MBC is commonly meant the lowest tested concentration that kills the bacteria rather than only halting them. For orientation: logP means the decadic logarithm of the partition coefficient of the neutral form, usually between octanol and water. High values mean higher lipophilicity, low ones lower lipophilicity.
